Where “and” joins values, the source holds several entries; their conditions need not be identical. Equal entries are not always repeated. Marks after values point to notes of the source that are not given here.
Assays:
Format in all cases: in vivo, human
[1] = system: subjects with uncontrolled hypertension; test: 24-hour ambulatory blood pressure monitoring (ABPM); conditions: for Proportion of subjects with nighttime dip 10-20% in 24-hour systolic ABP / Proportion of subjects with nighttime dip <10% in 24-hour systolic ABP / Proportion of subjects with nighttime dip >20% in 24-hour systolic ABP: Part 1, FAS
Procedure: Ambulatory blood pressure monitoring was accomplished with an ambulatory blood pressure monitoring device that consists of a blood pressure cuff worn on a subject's arm attached to a small recording device that is typically attached to the subject's belt or waistband. The ABPM device is worn for 24 hours. Throughout that period, the device records the subject's blood pressure at regular intervals, during the subject's routine daily activities and while they are sleeping. The ABPM thus provides a complete record of the subject's blood pressure over a 24-hour period. 24-hour ABPM was measured in the clinic at baseline and Study Week 7. If, for any reason, the ABPM procedure was deemed a failure at the end of Study Week 7, it may have been repeated at Study Week 8 and therefore no imputation was employed regardless of use of rescue medications. Additionally, ABPM was also collected at the end of Study Week 4 in Part 2. If a repeat test was performed, it supersedes the original test results for that visit. Specific derived variables based on ABPM measurements include mean 24-hour, mean Daytime, and mean Nighttime of SBP, DBP, and heart rate. Change from baseline to Week 7 in 24-hour mean SBP (and DBP) based on ABPM will be analyzed using an ANCOVA with a term for treatment group and a baseline mean 24-hour value as a covariate. The nighttime dip is defined as 100% x(mean daytime SBP−mean nighttime SBP)/mean daytime SBP It is expressed as a percentage and is summarized by treatment group and visit using descriptive statistics. In addition, the number and percentage of subjects with nighttime dip in each of the dipper categories (Bloomfield & Park, 2015) is presented by treatment group and visit. The categories are: • (a) <10% • (b) 10-20% inclusive • (c) >20%

[2] = system: 11-deoxycorticosterone; test: Pharmacodynamics: 11-deoxycorticosterone
Source text: (§1) PK/PD Analysis Set includes all subjects in the SAF who have sufficient data available for the analysis of pharmacokinetic and pharmacodynamic measurements. In the analyses based on PKPD, subjects will be analyzed according to the actual treatment received.

[3] = Serum potassium
Source text: (§2) Safety endpoints of this study are: • (a) Incidence and severity of all spontaneously reported adverse events (AEs) • (b) Changes in vital signs (standing SBP, standing DBP, body temperature, heart rate, and respiratory rate) • (c) Changes in electrocardiogram parameters (including cardiac intervals: PR, QRS, QT, and corrected QT interval using Fridericia's formula) • (d) Changes in clinical laboratory assessments (hematology, chemistry, coagulation, and urinalysis) • (e) Change in office-measured SBP from Study Week 8 (end-of-treatment period to end of follow up (i.e. end of Study Week 12 for Part 1 and end of Study 10 for Part 2).
The Safety Analysis Set includes all enrolled subjects who received at least one dose of study treatment (MLS-101 or placebo). In analyses performed on the Safety Analysis Set, subjects will be analyzed according to their actual treatment received.

[4] = system: serum cortisol; test: Pharmacodynamics: serum cortisol; conditions: for Cortisol, mean observed: BL
Source text: as §1

[5] = system: serum aldosterone; test: Pharmacodynamics: serum aldosterone; conditions: for Aldosterone, mean observed: BL; for Aldosterone levels relative to baseline: Part 1 lorundrostat-treated (range across doses)
Source text: as §1

[6] = Clinical laboratory evaluations, vital signs, physical examination, ECG
Source text: as §2

[7] = active treatment cohorts compared with placebo, Parts 1 and 2
[8] = pooled (Part 1 and Part 2) 100 mg QD safety set (n=60)

CC(=O)N[C@H]1CC[C@H](NC(=O)CN2CCN(c3nncc(-c4ccc(C)cc4)n3)CC2)CC1 [Compound A HBr]
Proportion of subjects with nighttime dip 10-20% in 24-hour systolic ABP ([1]; 12.5 mg BID, EoT): (31.3) % | Proportion of subjects with nighttime dip <10% in 24-hour systolic ABP ([1]; 12.5 mg BID, EoT): (68.8) % | LSM Δ with Placebo, change from baseline in Nighttime Mean DBP (ABPM, ANCOVA) ([1]; 12.5 mg QD, End of Treatment, Part 1, FAS post-hoc): −1.53 mmHg | Proportion of subjects with nighttime dip 10-20% in 24-hour systolic ABP ([1]; 12.5 mg QD, EoT): (35.7) % | Proportion of subjects with nighttime dip <10% in 24-hour systolic ABP ([1]; 12.5 mg QD, EoT): (64.3) % | Proportion of subjects with nighttime dip 10-20% in 24-hour systolic ABP ([1]; 25 mg BID, EoT): (16.7) % | Proportion of subjects with nighttime dip <10% in 24-hour systolic ABP ([1]; 25 mg BID, EoT): (79.2) % | Proportion of subjects with nighttime dip >20% in 24-hour systolic ABP ([1]; 25 mg BID, EoT): (4.2) % | Proportion of subjects with nighttime dip 10-20% in 24-hour systolic ABP ([1]; 50 mg QD, EoT): (21.4) % | Proportion of subjects with nighttime dip <10% in 24-hour systolic ABP ([1]; 50 mg QD, EoT): (78.6) % | Proportion of subjects with nighttime dip 10-20% in 24-hour systolic ABP ([1]; 100 mg QD, EoT): (45.8) % | Proportion of subjects with nighttime dip <10% in 24-hour systolic ABP ([1]; 100 mg QD, EoT): (45.8) % | Proportion of subjects with nighttime dip >20% in 24-hour systolic ABP ([1]; 100 mg QD, EoT): (8.3) % | Subjects with nighttime dip 10-20% in 24-hour systolic ABP ([1]; 100 mg QD, EoT, Part 2, FAS): 9 n | Subjects with nighttime dip <10% in 24-hour systolic ABP ([1]; 100 mg QD, EoT, Part 2, FAS): 18 n | Subjects with nighttime dip >20% in 24-hour systolic ABP ([1]; 100 mg QD, EoT, Part 2, FAS): 0 n | Subjects with nighttime dip 10-20% in 24-hour systolic ABP ([1]; 100 mg QD, Week 4, Part 2, FAS): 6 n | Subjects with nighttime dip <10% in 24-hour systolic ABP ([1]; 100 mg QD, Week 4, Part 2, FAS): 18 n | Subjects with nighttime dip >20% in 24-hour systolic ABP ([1]; 100 mg QD, Week 4, Part 2, FAS): 1 n | 11-Deoxycorticosterone, mean observed ([2]; Part 1, 12.5 mg BID, Wk 12): 8.0 ng/dL | 11-Deoxycorticosterone, mean observed ([2]; Part 1, 12.5 mg QD, BL): 8.3 ng/dL | 11-Deoxycorticosterone, mean observed ([2]; Part 1, 25 mg BID, Wk 12): 8.0 ng/dL | 11-Deoxycorticosterone, mean observed ([2]; Part 1, 50 mg QD, BL): 8.3 ng/dL | 11-Deoxycorticosterone, mean observed ([2]; Part 1, 100 mg QD, Wk 12): 8.4 ng/dL | 11-deoxycorticosterone ([2]; Part 1 active treatment arms, Week 4 compared with placebo): Transient increases | 11-Deoxycorticosterone, mean observed ([2]; Part 2, 100 mg QD, BL): 10.71 ng/dL | 11-deoxycorticosterone levels ([2]; summary of trial): unaffected | Increase in potassium levels relative to baseline ([3]; 25 mg BID Part 1, Week 8): 0.341 mmol/L | Serum K+ Mean Change from Baseline to Wk 8 ([3]; 50 mg QD (n = 28)): +0.25 mmol/L | Serum K+ Mean Change from Baseline to Wk 8 ([3]; 100 mg QD (n = 61)): +0.29 mmol/L | Increase in potassium levels relative to baseline ([3]; 100 mg QD Part 2, Week 8): 0.208 mmol/L | Number of individuals with verified or multiple increased serum K+ 5.2-5.5 mMol/L during treatment ([3]; 100 mg QD, Part 1): 5 | Number of individuals with verified or multiple increased serum K+ 5.6-6.0 mMol/L during treatment ([3]; 100 mg QD, Part 1): 3 | Number of individuals with verified or multiple increased serum K+ 6.1-6.5 mMol/L during treatment ([3]; 100 mg QD, Part 1): 0 | Percent of individuals with increased serum K+ 5.2-5.5 mMol/L ([3]; 100 mg QD, Part 1): (18.5%) | Percent of individuals with increased serum K+ 5.6-6.0 mMol/L ([3]; 100 mg QD, Part 1): (10.7%) | Number of individuals with increased serum K+ >6.5 mMol/L during treatment ([3]; 100 mg QD, Part 1, isolated incident not verified by repeat measurement): 1* | Number of individuals with verified or multiple increased serum K+ 5.2-5.5 mMol/L during treatment ([3]; 100 mg QD, Part 2): 1 | Number of individuals with verified or multiple increased serum K+ 5.6-6.0 mMol/L during treatment ([3]; 100 mg QD, Part 2): 0 | Number of individuals with verified or multiple increased serum K+ 6.1-6.5 mMol/L during treatment ([3]; 100 mg QD, Part 2): 0 | Number of individuals with verified or multiple increased serum K+ >6.5 mMol/L during treatment ([3]; 100 mg QD, Part 2): 0 | Percent of individuals with increased serum K+ 5.2-5.5 mMol/L ([3]; 100 mg QD, Part 2): (4%) | Number of individuals with verified or multiple increased serum K+ 5.2-5.5 mMol/L during treatment ([3]; 100 mg QD, Pooled): 6 | Number of individuals with verified or multiple increased serum K+ 5.6-6.0 mMol/L during treatment ([3]; 100 mg QD, Pooled): 3 | Number of individuals with verified or multiple increased serum K+ 6.1-6.5 mMol/L during treatment ([3]; 100 mg QD, Pooled): 0 | Number of individuals with verified or multiple increased serum K+ >6.5 mMol/L during treatment ([3]; 100 mg QD, Pooled): 0 | Percent of individuals with increased serum K+ 5.2-5.5 mMol/L ([3]; 100 mg QD, Pooled): (10.3%) | Percent of individuals with increased serum K+ 5.6-6.0 mMol/L ([3]; 100 mg QD, Pooled): (5.2%) | Change in group mean serum potassium (K+), Mean ([3]; Part 1, N 26*): +0.50 mMol/L | Change in group mean serum potassium (K+) ([3]; Part 1, N 26* (dose not given in Table 5)): +0.50 mMol/L | Change in group mean serum potassium (K+), Mean ([3]; Part 2, N 31): +0.23 mMol/L | Change in group mean serum potassium (K+) ([3]; Part 2, N 31 (dose not given in Table 5)): +0.23 mMol/L | Change in group mean serum potassium (K+), Mean ([3]; Pooled, N 57): +0.35 mMol/L | Change in group mean serum potassium (K+) ([3]; Pooled, N 57 (dose not given in Table 5)): +0.35 mMol/L | Serum potassium levels [3, 7]: increased | Episodes of severe hyperkalemia [3, 8]: no episodes of severe hyperkalemia | Subjects with transient elevated serum potassium greater than 6.0 mmol/L ([3]; whole study, none an SAE, all resolved after discontinuation or dose adjustment, listed as lorundrostat): seven | Cortisol, mean observed ([4]; Part 1, 12.5 mg BID): 10.195 µg/dL | Cortisol, mean observed ([4]; Part 1, 12.5 mg QD): 9.443 µg/dL | Cortisol, mean observed ([4]; Part 1, 25 mg BID): 10.577 µg/dL | Cortisol, mean observed ([4]; Part 1, 50 mg QD): 10.807 µg/dL | Cortisol, mean observed ([4]; Part 1, 100 mg QD): 11.272 µg/dL | Serum cortisol percent change from baseline ([4]; Part 1 active arms (range across doses), Week 4): 3.8% to 19.2% | Serum cortisol percent change from baseline ([4]; Part 1 active arms (range across doses), Week 8): 20.6% to 51.4% | Serum cortisol percent change from baseline ([4]; Part 1 active arms (range across doses), Week 12, listed as lorundrostat): −1.2% to 22.7% and −1.2 to 22.6% | Serum cortisol percent change from baseline ([4]; Part 2 100 mg QD, Week 12): 1.5% | Cortisol, mean observed ([4]; Part 2, 100 mg QD): 11.118 µg/dL | Serum cortisol percent change from baseline ([4]; Part 2, 100 mg QD, Week 4): 20.1% | Serum cortisol percent change from baseline ([4]; Part 2, 100 mg QD, Week 8): 153.4% | Adrenocortical insufficiency ([4]; during the trial, listed as lorundrostat): no adrenocortical insufficiency | Effect on serum cortisol [4, 8]: no effects on serum cortisol | Morning serum cortisol levels ([4]; summary of trial): modestly increased | Aldosterone, mean observed ([5]; Part 1, 12.5 mg BID): 6.636 ng/dL | Aldosterone, mean observed ([5]; Part 1, 12.5 mg QD): 7.065 ng/dL | Aldosterone, mean observed ([5]; Part 1, 25 mg BID): 6.558 ng/dL | Aldosterone, mean observed ([5]; Part 1, 50 mg QD): 6.205 ng/dL | Aldosterone, mean observed ([5]; Part 1, 100 mg QD): 6.533 ng/dL | Aldosterone levels relative to baseline ([5]; Week 4): −40.1% to 7.4% | Aldosterone levels relative to baseline ([5]; Week 12): −26.6% to 15.9% | Aldosterone, mean observed ([5]; Part 2, 100 mg QD): 6.435 ng/dL | Serum aldosterone levels ([5]; pharmacodynamic response across doses): dose-dependent reduction | Clinical chemistry, hematology, coagulation, urinalysis changes from baseline to Week 8 ([6]; Part 1 or Part 2): no meaningful changes | Vital signs, physical examination, ECG parameters ([6]; Parts 1 and 2): no notable findings | Serum creatinine levels [6, 7]: increased

Source: patent US20260053812A1, “METHODS OF TREATING HYPERTENSION WITH A COMBINATION OF AN ALDOSTERONE SYNTHASE INHIBITOR AND A DIURETIC” (Mineralys Therapeutics, Inc., priority 2022, published 2026)
